The values that follow come from publication PMC6161288, “Bioavailability of Eurycomanone in Its Pure Form and in a Standardised Eurycoma longifolia Water Extract” (Pharmaceutics, 2018).

One may read the bioavailability as dose-corrected exposure relative to a reference, in per cent. In general, Tmax refers to the time at which the peak concentration occurs. As usually defined, the Cmax is the highest concentration seen after dosing. For orientation: solubility means the concentration that dissolves in the medium under given conditions. A lower solubility goes with a poorly soluble substance.

Series [1] can be described thus: Pharmacokinetics of eurycomanone in mice (intravenous and oral). The settings on record: plasma; for AUC(0-t): read-out: AUC0–8. The format is in vivo, CD-1 mice. The source says:
The ethical approval for the animal experiments conducted in India was granted from the Animal Ethics Committee, Aurigene Discovery Technologies, Bangalore, India. Eight male Wistar rats (12 weeks old; weighing 250–350 g) and eight Caeserean Derived-1 (CD-1) mice (weighing 20–30 g) were obtained from the Animal House, Aurigene Discovery Technologies, Bangalore, India. They were supplied with standard rodent diets and drinking water ad libitum. Each rodent species (i.e., rats and mice) were divided into two groups. One group (n = 3 for each rodent species) was administered with eurycomanone via the intravenous route (IV) and another group (n = 3 for each rodent species) via the oral route (PO) using oral gavage intubation needle. Two animals of each of the species were used as a control and they received reverse osmosis water. All rats underwent jugular vein cannulation surgery 72 h prior to the administration of the eurycomanone.
Eurycomanone (rats: 1.5 mg/mL for IV route and 3.0 mg/mL for PO route; mice: 0.5 mg/mL for IV route and 1.0 mg/mL for PO route) samples were prepared fresh on the day of dosing. For the IV administration, eurycomanone was dissolved in 3% NMP and 97% of 10% HPCD in saline. For the oral administration, eurycomanone was dissolved in 3% NMP and 97% of 30% HPCD in saline. Both samples were sonicated before use. The SWE (5 mg/mL for IV route, 10 mg/mL for PO route) was prepared fresh on the day of dosing. For the IV administration, the SWE was dissolved in reverse osmosis water and filtered (0.2 µm pore size) before administration. The SWE for the PO administration was prepared using the same method, except without filtering. The animals were not fasted and doses given were based on the body weights prior to dosing.
Blood specimens (approximately 0.30–0.40 mL via the jugular vein cannula for rats and 0.10–0.20 mL via submanibular bleeding for mice) were collected at time points 0.083 (IV group only), 0.25, 0.5, 1, 2, 4, 6, and 8 h post-dosing with eurycomanone. At the experiment end point, the animals were euthanized by excess isoflurane inhalation followed by cervical dislocation. In the experiment using SWE, the rats were placed in metabolic cages (Techniplast, West Chester, PA, USA) and blood (approximately 0.30–0.40 mL collected via the jugular vein cannula), urine, and faeces specimens were collected at the same time points with the above plus one additional time point of 24 h. Kidney and liver specimens were collected at necropsy, where the rats were euthanized by CO2 inhalation followed by cervical dislocation. All blood specimens were centrifuged (10,000 rpm, 10 min) to obtain plasma and were stored at −80 °C until processed. Urine and faeces specimens were collected into plastic containers on wet ice while the organ specimens were snap-frozen in liquid nitrogen and maintained at −80 °C until processed.
Plasma specimens (100 µL), collected from the eurycomanone experiment were added with the internal standard solution (10 µL). Plasma proteins were precipitated with ACN (300 µL), vortex-mixed for 5 min, and centrifuged at 4000 rpm for 7 min. The supernatant was collected and evaporated using a nitrogen evaporator for 20 min at 50 °C. Thereafter, they were reconstituted with the mobile phase (500 µL) and transferred into LC-MS vials for analysis.
Eurycomanone detection in the pure eurycomanone experiments was done via the LC-MS/MS system consisting of an Agilent 1260 Infinity HPLC system and an AB SCIEX API 4000™ Triple-Quadrupole mass spectrometer equipped with TurboIonSpray® probe and atmospheric pressure chemical ionization (APCI) (AB Sciex LLC, Framingham, MA, USA). Electrospray ionization (ESI) was performed in positive ion mode. The analytical column was Agilent Zorbax Eclipse-C18 (4.6 mm I.D. × 150 mm, 3.5 µm). The mobile phase consisted of 0.1% formic acid (solvent A) and 90% ACN with 0.1% formic acid (solvent B). […]

Series [2] in a line: Aqueous solubility. The format is physicochemical. The settings on record: aqueous buffer, kinetic from dmso stock, room temperature, 2% DMSO. As for the experimental part: The aqueous […] was estimated by adding 10 µL of eurycomanone stock solution (10 mM) to 490 µL of aqueous buffer at pH 5.4, pH 7.4 and DMSO in triplicates in deep-well plates. […] The plate was kept on a shaker (300 rpm) at room temperature for 16 h. The plate was then centrifuged at 25 °C, 4000 rpm for 25 min. The supernatant was transferred and analysed using LC-MS/MS.
Peak area 1 = peak area of the compound in 2% DMSO at the different pH levels.
Peak area 2 = peak area of the compound in 100% DMSO.

Series [3] in a line: Liver microsome metabolic stability, rat. The settings on record: rat liver microsomes. The format is in vitro ADME. As for the experimental part: The liver microsome stability assay of eurycomanone was estimated using phase I and phase II enzymes in five types of microsomes (mice, rat, dog, monkey, and human). Eurycomanone at 1 mM (20 µL), microsomes at 0.3 mg/mL (20 µL), and 10 mg/mL of alamethicin in 1:1 DMSO and methanol (20 µL) were preincubated at 37 °C for 10 min. The cofactor, 5 mM UDPGA (20 µL), and 1 mM NADPH (20 µL) were added to make the final assay volume of 100 µL. At timepoints 0, 15, 30, 45, 60, and 90 min, […] of the reaction mixture is taken out and added to the stop solution. The supernatants (10,000 rpm, 10 min, 4 °C) were collected and analysed using LC-MS/MS. The standards used for mice and rat liver microsomes were propranolol and dasatinib. The standards used with the dog and monkey liver microsomes were propranolol and midazolam, while the standards used with the human liver microsomes were propranolol and terfinadine.
(In general: Microsomes from liver hold many membrane-bound enzymes, among them those of drug oxidation.)

Series [4] in a line: Plasma protein binding (rapid equilibrium dialysis), dog. The format is in vitro ADME. The settings on record: pH 7.4, 37 °C, read-out: percentage bound to plasma protein (converted). As for the experimental part:
The ability of eurycomanone to bind plasma protein was analysed in five types of plasma (mice, rat, dog, monkey, and human). Each type of plasma was spiked with eurycomanone (1 mM) to make the 10 µM test concentration of eurycomanone in the plasma. Equilibrium dialysis buffer (500 µL) at pH 7.4 was added to the right chamber in rapid equilibrium dialysis (RED), while the spiked plasma (300 µL) was added to the left chamber. The Teflon base plate was covered with aluminium foil and left on the shaking incubator at 37 °C for 4 h. The matrix was balanced by mixing 100 µL of the equilibrium buffer with the spiked plasma from the left chamber in RED before adding the stop solution (350 µL) to precipitate out the protein. The supernatant (10,000 rpm, 10 min, 4 °C) was collected and analysed using LC-MS/MS. The standards (propranolol, warfarin, and acebutalol) were analysed in duplicates.
Background: In equilibrium dialysis only unbound substance equilibrates across the membrane.

Series [5] has as its system HepG2 cell-induced tumours. On the set-up: method as in earlier work. The note with it: 17 mg/kg orally, nude mice with HepG2 cell-induced tumours; cited from earlier work.

Converted amounts (≈) assume the structure as drawn. Where two headings read alike, the source gives them in different places.

`C=C1[C@@H](O)[C@]2(O)OC[C@]34[C@H]2[C@@]2(C)[C@H](O)C(=O)C=C(C)[C@@H]2C[C@H]3OC(=O)[C@H](O)[C@@]14O` [Eurycomanone]: the “Observed Cmax” value in series [1] (10 mg/kg oral, 10 mg/kg) worked out at 334.7 ng/mL. The AUC(0-t) in series [1] (CD-1, mouse, 1 mg/kg intravenous) turned out to be 221 ng·h/mL; in series [1] (CD-1, mouse, 10 mg/kg oral), 1210 ng·h/mL. Moreover, the half-life in series [1] (CD-1, mouse, 1 mg/kg intravenous, read-out: Half-life (t1/2) (converted)) is 0.3 h. Moreover, the clearance in series [1] (CD-1, mouse, 1 mg/kg intravenous, read-out: Plasma Clearance (CL) (converted)) is 64.2 mL/min/kg. For the same molecule, in series [1] (CD-1, mouse, 1 mg/kg intravenous, read-out: Volume of Distribution at Steady State (Vss)), the Vd was 1.51 L/kg. The bioavailability in series [1] (CD-1, mouse, 10 mg/kg oral vs 1 mg/kg intravenous, read-out: Bioavailability (F)) amounted to 54.9%. In addition, the Tmax in series [1] (CD-1, mouse, 10 mg/kg oral, read-out: Observed Tmax) amounted to 2 h. The Cmax in series [1] (CD-1, mouse, po, 10 mg/kg, 10 mg/kg oral, read-out: Observed Cmax) amounted to 335 ng/mL. The solubility at 16 h in series [2] (pH 5.4, 16 h) amounted to 206 µM (≈ 83.9 µg/mL); in series [2] (pH 7.4, 16 h) it was 205 µM (≈ 83.9 µg/mL). In addition, the “Half-life (t1/2)” value in series [3] is recorded as above 1.5 h. In series [3], this molecule returned a half-life at 200 µM above 1.5 h. In addition, the CLint scaled at 200 µM in series [3] (read-out: Intrinsic clearance (Clint)) turned out to be 83.2 mL/min/kg. The fraction unbound at 4 h, 10 µM in series [4] was 0.322. For the same molecule, in series [5], the tumour suppression result is on record as “tumour suppression ability was demonstrated”.
